Earlier results in US5744472A, “1-(N'-(arylalkylaminoalkyl)) aminoisoindoles; a new class of dopamine receptor subtype specific ligands” (Neurogen Corporation, priority 1995, dated 1998).
Read-outs that look alike come from different tables or passages of the source. Each block holds one compound with its values, some of them ahead of it.

Legend:
[1] = tested on: extrapyramidal side effects (EPS)
D1 dopamine receptor = details: background statement
D2 receptors = details: background statement

SMILES: CN1CCN(C2=Nc3cc(Cl)ccc3Nc3ccccc32)CC1 [clozapine]
incidence of extrapyramidal side effects ([1]; compared with classical neuroleptics, background statement): lesser incidence of extrapyramidal side effects (EPS) than classical neuroleptics

binding at the D1 dopamine receptor (D1 dopamine receptor): binds relatively weakly | binding affinity at D2 receptors (D2 receptors): subnanomolar range
SMILES: O=C(CCCN1CCC(O)(c2ccc(Cl)cc2)CC1)c1ccc(F)cc1 [haloperidol]

SMILES: CCN1CCCC1CNC(=O)c1cc(S(N)(=O)=O)ccc1OC (stereo not shown) [sulpiride]
incidence of extrapyramidal side effects ([1]; in vivo): lesser incidence of extrapyramidal side effects (EPS) than classical neuroleptics
